# “And” between values parts separate entries of the source, which are not always exact repeats. Equal entries are not always repeated.
# How the values were obtained:
# [1] = tested on: 341 kinases; assay: Kinase selectivity profile, whole panel; assay type: biochemical, human; conditions: 500 nM
# Method: (§1) The activity of MT-SYK-03 against cSrc kinase and selectivity profile towards other 341 kinases was determined at Reaction Biology Corporation (Malvern, PA, USA) using the standard kinase assay protocol. […]; unbound phosphate was removed by extensive washing of filters in phosphoric acid. Kinase activity data was expressed as the percent remaining kinase activity in test samples compared to vehicle (dimethyl sulfoxide) reactions based on the radioactivity of reaction products (see Table S2). Experiment was replicated twice.
# [2] = tested on: THP-1 cells; assay: Inhibition of TNF-α secretion by activated monocytes; assay type: cell-based; conditions: Homo sapiens, differentiated monocytes, IgG-coated plates, read-out: IC50, inhibition of TNF-α release
# Method: The assay was performed at A. N. Bakh Institute of Biochemistry, Russia. Human leukemia monocytic THP-1 cells obtained from Russian collection cell cultures (RCCC) were cultured in 5% CO2 humidified atmosphere at 37 °C in RPMI 1640 supplemented with 100 U mL^–1 penicillin/streptomycin, 2% FBS and 20 μM β-mercaptoethanol. THP-1 cells were incubated in 5% CO2 atmosphere at 37 °C in RPMI 1640 medium. To induce differentiation the cells were treated with IFN-g for six days. 96-well culture plate coated with combined human IgG were incubated during night at 4 °C (or for 1 h at 37 °C). To evaluate baseline cell simulation F(ab’)2 was used as a negative control in part of wells. Unbounded antibodies were removed with sodium-phosphate buffer. A solution of test compound (MT-SYK-03 or) and differentiated cells in cultivating medium were added in each well. […] Each concentration was tested in triplicate; the experiment was replicated twice. For dose–response curve see Fig. S3.
# [3] = target: T1, c-Src (Homo sapiens, UniProt P12931); assay: cSrc inhibition and kinase selectivity profile assay; assay type: biochemical; conditions: for remaining activity at 0.5 µM: 500 nM, relative to DMSO, read-out: Residual enzymatic activity
# T1 construct: purchased Reaction Biology Corporation (assay service)
# T1 sequence (P12931 whole entry): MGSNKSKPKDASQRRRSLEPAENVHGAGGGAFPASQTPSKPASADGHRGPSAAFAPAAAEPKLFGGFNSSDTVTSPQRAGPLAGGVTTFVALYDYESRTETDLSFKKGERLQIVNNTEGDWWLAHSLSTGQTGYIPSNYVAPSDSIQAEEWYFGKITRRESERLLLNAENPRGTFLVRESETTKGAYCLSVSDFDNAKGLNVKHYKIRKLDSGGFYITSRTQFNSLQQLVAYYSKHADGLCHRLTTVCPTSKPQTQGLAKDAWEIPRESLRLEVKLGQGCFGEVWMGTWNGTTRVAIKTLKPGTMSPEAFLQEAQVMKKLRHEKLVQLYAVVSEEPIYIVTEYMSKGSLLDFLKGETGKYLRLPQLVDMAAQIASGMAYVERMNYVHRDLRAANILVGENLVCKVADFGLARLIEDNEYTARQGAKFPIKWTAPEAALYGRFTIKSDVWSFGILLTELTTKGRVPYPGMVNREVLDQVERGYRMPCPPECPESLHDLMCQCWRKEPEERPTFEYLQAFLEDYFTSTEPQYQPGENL
# Method: as §1
# [4] = tested on: rat primary chondrocytes; assay: Hypertrophic-like changes in IL-1β treated primary chondrocytes; assay type: cell-based; conditions: for Relative fold expression, aggrecan / Relative fold expression, type II collagen: control = 1
# Method: The experiment was performed at Atlantic Bone Screen, France. To isolate primary chondrocytes, Sprague Dawley 3 weeks old rats were euthanized and their hind limbs were collected. Knee cartilage shavings were digested with collagenase in serum-free Dulbecco’s Modified Eagle’s Medium (DMEM). Once digested, the cell suspension was centrifuged and resuspended in DMEM containing 10% fetal bovine serum (FBS). Then the cells were plated on tissue culture plastic at a density of 10 000 cells∙cm^−2 and were amplified in monolayer in culture medium (DMEM/FCS-10% supplemented with HEPES (25 mM)) until passage 1 and frozen at − 80 °C. Before study rat’s chondrocytes were seeded and cultured in monolayers in 12-well plates for 24 h. After that the cells were treated for three days with IL-1β (10 ng/mL) and MT-SYK-03; […] and vehicle (DMSO, 0.3% in cell medium) controls were also carried out in triplicate. At the end of the treatment, chondrocytes were lysed, and total RNA was purified using the NucleoSpin RNA II kit (Macherey Nagel). Total RNAs (2 μg) were retro-transcribed using M-MLV RT (Lifetechnologies) and obtained cDNAs (10 ng) were used for qPCR to determine steady-state levels of type II collagen and aggrecan mRNAs (levels of RPL19 and β-actin mRNAs were used as controls). Each reaction was set up as follows: 5 μL of iQ SYBR Green Supermix (Biorad, ref 1,708,882), 0.6 μL of forward primer (5 μM), and 0.6 μL of reverse primer (5 μM), 1.8 μL H2O, and 2 μL of cDNA. All qPCRs (72 qPCRs per marker) were run on a DNA Engine Thermal Cycler Chromo 4 in triplicates and analyzed using REST software.
# [5] = tested on: mongrel rats, AIA model; assay: Adjuvant-induced arthritis in rats; assay type: in vivo
# Method: Rat adjuvant-induced arthritis (AIA) model was performed at Pharmenterprises, Russia as described previously^3 and approved by Ethics Committee of Pharmenterprises. Male 10 week old mongrel rats were divided into eleven groups: negative control (#1), positive control (#2) and nine treatment groups (#3–11), ten […] in each group. Group #1 was left intact, while subplantar injection of 0.1 mL of Complete Freund’s adjuvant (CFA, Sigma) was made on day 0 at right paws of rats in groups […]. […] Disease progression was monitored by measuring volumes of the right (involved) and left (non-involved) paws on days 0, 14, 18, 21, 25, and 28.
smiles,measurement,setting,value
COc1cc(Nc2ncnc(Nc3cc4c(cn3)NC(=O)C(C)(C)O4)n2)cc(OC)c1OC [MT-SYK-03],Number of kinases inhibited by more than 50%,[1],34 kinases
same,Number of kinases inhibited by more than 80%,[1],13 kinases
same,Number of kinases inhibited by more than 90%,[1],five
same,IC50,[2],480 nM
same,IC50,[3],14.2 nM and 23 to 40 nM and 14 nM
same,remaining activity at 0.5 µM,[3],6.2%
same,Aggrecan gene expression,"[4]; IL-1β 10 ng/mL, three days",increased
same,Type II collagen gene expression,"[4]; IL-1β 10 ng/mL, three days",increased
same,"Relative fold expression, aggrecan",[4]; IL-1β + MT-SYK-03 0.4 μM,0.20
same,"Relative fold expression, type II collagen",[4]; IL-1β + MT-SYK-03 0.4 μM,0.12
same,"Relative fold expression, aggrecan",[4]; IL-1β + MT-SYK-03 2 μM,0.42
same,"Relative fold expression, type II collagen",[4]; IL-1β + MT-SYK-03 2 μM,0.12
same,"Relative fold expression, aggrecan",[4]; IL-1β + MT-SYK-03 10 μM,0.46
same,"Relative fold expression, type II collagen",[4]; IL-1β + MT-SYK-03 10 μM,0.09
same,Animal death,"[5]; MT-SYK-03 52 mg/kg BID intragastric, 14 days",0%
same,Animal death,"[5]; MT-SYK-03 52 mg/kg BID intragastric, 18 days",0%
same,Animal death,"[5]; MT-SYK-03 52 mg/kg BID intragastric, 21 days",0%
same,Animal death,"[5]; MT-SYK-03 52 mg/kg BID intragastric, 25 days",0%
same,Animal death,"[5]; MT-SYK-03 52 mg/kg BID intragastric, 28 days",0%
same,Animal death,"[5]; MT-SYK-03 103 mg/kg BID intragastric, 14 days",0%
same,Animal death,"[5]; MT-SYK-03 103 mg/kg BID intragastric, 18 days",0%
same,Animal death,"[5]; MT-SYK-03 103 mg/kg BID intragastric, 21 days",0%
same,Animal death,"[5]; MT-SYK-03 103 mg/kg BID intragastric, 25 days",0%
same,Animal death,"[5]; MT-SYK-03 103 mg/kg BID intragastric, 28 days",0%
same,Animal death,"[5]; MT-SYK-03 207 mg/kg QD intragastric, 14 days",0%
same,Animal death,"[5]; MT-SYK-03 207 mg/kg QD intragastric, 18 days",0%
same,Animal death,"[5]; MT-SYK-03 207 mg/kg QD intragastric, 21 days",0%
same,Animal death,"[5]; MT-SYK-03 207 mg/kg QD intragastric, 25 days",0%
same,Animal death,"[5]; MT-SYK-03 207 mg/kg QD intragastric, 28 days",0%
same,The increase in the volume of the paws relative to the initial level,"[5]; non-involved paws, MT-SYK-03 52 mg/kg BID intragastric, 18 days",22.55±2.93& %
same,The increase in the volume of the paws relative to the initial level,"[5]; non-involved paws, MT-SYK-03 52 mg/kg BID intragastric, 21 days",23.66±3.25& %
same,The increase in the volume of the paws relative to the initial level,"[5]; non-involved paws, MT-SYK-03 52 mg/kg BID intragastric, 25 days",24.39±2.8& %
same,The increase in the volume of the paws relative to the initial level,"[5]; non-involved paws, MT-SYK-03 52 mg/kg BID intragastric, 28 days",25.25±2.86& %
same,The increase in the volume of the paws relative to the initial level,"[5]; non-involved paws, MT-SYK-03 103 mg/kg BID intragastric, 14 days",11.22±1.26& %
same,The increase in the volume of the paws relative to the initial level,"[5]; non-involved paws, MT-SYK-03 103 mg/kg BID intragastric, 18 days",17.42±1.16& %
same,The increase in the volume of the paws relative to the initial level,"[5]; non-involved paws, MT-SYK-03 103 mg/kg BID intragastric, 21 days",20.38±2.11& %
same,The increase in the volume of the paws relative to the initial level,"[5]; non-involved paws, MT-SYK-03 103 mg/kg BID intragastric, 25 days",22.35±2.28& %
same,The increase in the volume of the paws relative to the initial level,"[5]; non-involved paws, MT-SYK-03 103 mg/kg BID intragastric, 28 days",21.41±2.05&# %
same,The increase in the volume of the paws relative to the initial level,"[5]; non-involved paws, MT-SYK-03 207 mg/kg QD intragastric, 14 days",14.3±1.82& %
same,The increase in the volume of the paws relative to the initial level,"[5]; non-involved paws, MT-SYK-03 207 mg/kg QD intragastric, 18 days",19.97±1.89& %
same,The increase in the volume of the paws relative to the initial level,"[5]; non-involved paws, MT-SYK-03 207 mg/kg QD intragastric, 21 days",21.15±1.89& %
same,The increase in the volume of the paws relative to the initial level,"[5]; non-involved paws, MT-SYK-03 207 mg/kg QD intragastric, 25 days",22.51±1.61& %
same,The increase in the volume of the paws relative to the initial level,"[5]; non-involved paws, MT-SYK-03 207 mg/kg QD intragastric, 28 days",21.94±1.37&# %
same,The increase in the volume of the paws relative to the initial level,"[5]; po, 52 mg/kg, 336 h",13.93±1.83& %
same,Rats died,"[5]; rat AIA, MT-SYK-03",0%
same,Volume of non-involved paws,"[5]; rat AIA, MT-SYK-03 103 and 207 mg/kg, day 28",decreased the volume of non-involved paws
same,The increase in the volume of the paws relative to the initial level,"[5]; treated paws, MT-SYK-03 52 mg/kg BID intragastric, 14 days",77.6 ± 4.53 & %
same,The increase in the volume of the paws relative to the initial level,"[5]; treated paws, MT-SYK-03 52 mg/kg BID intragastric, 18 days",85.72 ± 3.7 & %
same,The increase in the volume of the paws relative to the initial level,"[5]; treated paws, MT-SYK-03 52 mg/kg BID intragastric, 21 days",88.24 ± 4.4 & %
same,The increase in the volume of the paws relative to the initial level,"[5]; treated paws, MT-SYK-03 52 mg/kg BID intragastric, 25 days",94.75 ± 7.18 & %
same,The increase in the volume of the paws relative to the initial level,"[5]; treated paws, MT-SYK-03 52 mg/kg BID intragastric, 28 days",93.88 ± 6.77 & %
same,The increase in the volume of the paws relative to the initial level,"[5]; treated paws, MT-SYK-03 103 mg/kg BID intragastric, 14 days",76.18 ± 7.73 & %
same,The increase in the volume of the paws relative to the initial level,"[5]; treated paws, MT-SYK-03 103 mg/kg BID intragastric, 18 days",85.98 ± 7.51 & %
same,The increase in the volume of the paws relative to the initial level,"[5]; treated paws, MT-SYK-03 103 mg/kg BID intragastric, 21 days",86.55 ± 8.13 & %
same,The increase in the volume of the paws relative to the initial level,"[5]; treated paws, MT-SYK-03 103 mg/kg BID intragastric, 25 days",86.47 ± 7.89 & %
same,The increase in the volume of the paws relative to the initial level,"[5]; treated paws, MT-SYK-03 103 mg/kg BID intragastric, 28 days",89.02 ± 7.37 & %
same,The increase in the volume of the paws relative to the initial level,"[5]; treated paws, MT-SYK-03 207 mg/kg QD intragastric, 14 days",81.54 ± 6.88 & %
same,The increase in the volume of the paws relative to the initial level,"[5]; treated paws, MT-SYK-03 207 mg/kg QD intragastric, 18 days",82.92 ± 6.64 & %
same,The increase in the volume of the paws relative to the initial level,"[5]; treated paws, MT-SYK-03 207 mg/kg QD intragastric, 21 days",83.22 ± 6.53 & %
same,The increase in the volume of the paws relative to the initial level,"[5]; treated paws, MT-SYK-03 207 mg/kg QD intragastric, 25 days",88.58 ± 7.8 & %
same,The increase in the volume of the paws relative to the initial level,"[5]; treated paws, MT-SYK-03 207 mg/kg QD intragastric, 28 days",93.67 ± 9.08 & %
"CN(Cc1cnc2nc(N)nc(N)c2n1)c1ccc(C(=O)N[C@@H](CCC(=O)O)C(=O)O)cc1 [MTX, methotrexate, reference compound]",Animal death,"[5]; Methotrexate 0.2 mg/kg QD intragastric, 14 days",0%
same,Animal death,"[5]; Methotrexate 0.2 mg/kg QD intragastric, 18 days",0%
same,Animal death,"[5]; Methotrexate 0.2 mg/kg QD intragastric, 21 days",0%
same,Animal death,"[5]; Methotrexate 0.2 mg/kg QD intragastric, 25 days",10%
same,Animal death,"[5]; Methotrexate 0.2 mg/kg QD intragastric, 28 days",20%
same,Animal death,"[5]; Methotrexate 0.5 mg/kg QD intragastric, 14 days",0%
same,Animal death,"[5]; Methotrexate 0.5 mg/kg QD intragastric, 18 days",0%
same,Animal death,"[5]; Methotrexate 0.5 mg/kg QD intragastric, 21 days",0%
same,Animal death,"[5]; Methotrexate 0.5 mg/kg QD intragastric, 25 days",20%
same,Animal death,"[5]; Methotrexate 0.5 mg/kg QD intragastric, 28 days",70%
same,Rats died,"[5]; rat AIA, MTX 0.2 mg/kg",20%
same,Rats died,"[5]; rat AIA, MTX 0.5 mg/kg",70%
same,Volume of treated (CFA-injected) paws,"[5]; rat AIA, day 28",statistically significant reductions of paw volume
same,Volume of non-involved paws,"[5]; rat AIA, high-dose MTX, day 28",decreased the volume of non-involved paws
same,Volume of non-involved paws,"[5]; rat AIA, low-dose MTX, day 28",no statistically significant effect
"COc1cc(Nc2ncc(F)c(Nc3ccc4c(n3)NC(=O)C(C)(C)O4)n2)cc(OC)c1OC [R406, reference compound]",Number of kinases inhibited by more than 50%,[1],104 kinases
same,Number of kinases inhibited by more than 80%,[1],50 kinases
same,Number of kinases inhibited by more than 90%,[1],26 kinases
same,remaining activity at 0.5 µM,[3],6.8%
